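Dose response: 5 concentrations. Exposure: 48 h. Format: 96-well plates. Endpoint: linear interpolation; highest concentration if not reached. GI50 = concentration required for 50% inhibition of growth.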 The source made the active and inactive calls. Cut-off read from the data, not from the text of the source: active = GI50 up to about 1.1 µM and inactive = higher. Where a SMILES comes first, the peptide text is derived from it. The star is where a group is joined. Boc = CC(C)(C)OC(=O)*
Assays:
Assay in all cases: DTP human tumour cell line panel, 48 h
CAKI-1 = test system: CAKI-1
EKVX = test system: EKVX
SR = test system: SR
SF-539 = test system: SF-539
OVCAR-3 = test system: OVCAR-3
SN12C = test system: SN12C
DU-145 = test system: DU-145
A498 = test system: A498
COLO 205 = test system: COLO 205
MDA-MB-435 = test system: MDA-MB-435
IGROV-1 = test system: IGROV-1
OVCAR-4 = test system: OVCAR-4
PC-3 = test system: PC-3
OVCAR-5 = test system: OVCAR-5
K562 = test system: K562
SK-MEL-28 = test system: SK-MEL-28
RXF 393 = test system: RXF 393
OVCAR-8 = test system: OVCAR-8
NCI-H460 = test system: NCI-H460
M14 = test system: M14

| SMILES | GI50 (CAKI-1) | GI50 (EKVX) | GI50 (SR) | GI50 (SF-539) | GI50 (OVCAR-3) | GI50 (SN12C) | GI50 (DU-145) | GI50 (A498) | GI50 (COLO 205) | GI50 (MDA-MB-435) | GI50 (IGROV-1) | GI50 (OVCAR-4) | GI50 (PC-3) | GI50 (OVCAR-5) | GI50 (K562) | GI50 (SK-MEL-28) | GI50 (RXF 393) | GI50 (OVCAR-8) | GI50 (NCI-H460) | GI50 (M14) |
| --- | --- | --- | --- | --- | --- | --- | --- | --- | --- | --- | --- | --- | --- | --- | --- | --- | --- | --- | --- | --- |
| C[C@@]12C[C@@H](c3ccccc3O1)N1CCCSC1=N2 | > 100 µM (inactive) | > 100 µM (inactive) | > 100 µM (inactive) | > 100 µM (inactive) | > 100 µM (inactive) | > 100 µM (inactive) | > 100 µM (inactive) | > 100 µM (inactive) | > 100 µM (inactive) | > 100 µM (inactive) | > 100 µM (inactive) | > 100 µM (inactive) | > 100 µM (inactive) | > 100 µM (inactive) | > 100 µM (inactive) | > 100 µM (inactive) | > 100 µM (inactive) | > 100 µM (inactive) | > 100 µM (inactive) | > 100 µM (inactive) |
| CCCCCCCCCCNC(=O)CCC(NC(=O)c1ccc(N(C)Cc2cnc3nc(N)nc(N)c3n2)cc1)C(=O)NCCCCCCCCCC (stereo not given) | > 100 µM (inactive) | 12.3 µM (inactive) | 2.94 µM (inactive) | 5.13 µM (inactive) | 10 µM (inactive) | 8.07 µM (inactive) | 20.1 µM (inactive) | 30.5 µM (inactive) | 7.01 µM (inactive) | 4.2 µM (inactive) | 6.04 µM (inactive) | 8.99 µM (inactive) | 5.62 µM (inactive) | 23.8 µM (inactive) | 0.698 µM (active) | 8.79 µM (inactive) | 5.53 µM (inactive) | 8.45 µM (inactive) | 4.06 µM (inactive) | 8.97 µM (inactive) |
| C=CCSC1=N/C(=C\c2ccccc2)C(=O)N1CC=C | 60.5 µM (inactive) | 22.5 µM (inactive) | 22.7 µM (inactive) | 84.1 µM (inactive) | > 47.2 µM (inactive) | 36.2 µM (inactive) | > 86.5 µM (inactive) | 23.1 µM (inactive) | 41.6 µM (inactive) | 36.8 µM (inactive) | > 100 µM (inactive) | 40.6 µM (inactive) | 24.8 µM (inactive) | > 100 µM (inactive) | 3.48 µM (inactive) | > 83.8 µM (inactive) | 20.2 µM (inactive) | 32.7 µM (inactive) | 41.6 µM (inactive) | 67.9 µM (inactive) |
| CCOC(=O)c1cn(-c2ccc(Cl)cc2)c(=O)n2c1nc1ccccc12 | > 100 µM (inactive) | > 100 µM (inactive) | > 100 µM (inactive) | > 100 µM (inactive) | > 100 µM (inactive) | > 100 µM (inactive) | > 100 µM (inactive) | > 100 µM (inactive) | > 100 µM (inactive) | > 100 µM (inactive) | > 100 µM (inactive) | > 100 µM (inactive) | > 100 µM (inactive) | > 100 µM (inactive) | > 100 µM (inactive) | > 100 µM (inactive) | > 100 µM (inactive) | > 100 µM (inactive) | > 100 µM (inactive) | > 100 µM (inactive) |
| CCOc1ccc(/N=N/S(=O)(=O)O)cc1 | > 100 µM (inactive) | > 100 µM (inactive) | > 100 µM (inactive) | > 100 µM (inactive) | > 100 µM (inactive) | > 100 µM (inactive) | > 100 µM (inactive) | > 100 µM (inactive) | > 100 µM (inactive) | > 100 µM (inactive) | > 100 µM (inactive) | > 100 µM (inactive) | > 100 µM (inactive) | > 100 µM (inactive) | > 100 µM (inactive) | > 100 µM (inactive) | > 100 µM (inactive) | > 100 µM (inactive) | > 100 µM (inactive) | > 100 µM (inactive) |
| C=CC(OC(C)=O)c1ccc(OC(C)=O)cc1 (stereo not given) | 4.88 µM (inactive) | 13.8 µM (inactive) | 2.69 µM (inactive) | 2.08 µM (inactive) | 6.11 µM (inactive) | 2.1 µM (inactive) | 10.4 µM (inactive) | 12 µM (inactive) | 3.85 µM (inactive) | 3.45 µM (inactive) | 15.7 µM (inactive) | 17.2 µM (inactive) | 2.56 µM (inactive) | 9.27 µM (inactive) | 20 µM (inactive) | 9.27 µM (inactive) | 14 µM (inactive) | 3.94 µM (inactive) | 17.1 µM (inactive) | 10.5 µM (inactive) |
| CC(C)(C)OC(=O)NCC(=O)NCC(=O)NCC(=O)NCC(=O)O (Boc-GGGG-OH) | > 100 µM (inactive) | > 100 µM (inactive) | > 100 µM (inactive) | > 100 µM (inactive) | > 100 µM (inactive) | > 100 µM (inactive) | > 100 µM (inactive) | > 100 µM (inactive) | > 100 µM (inactive) | > 100 µM (inactive) | > 100 µM (inactive) | > 100 µM (inactive) | > 100 µM (inactive) | > 100 µM (inactive) | > 100 µM (inactive) | > 100 µM (inactive) | > 100 µM (inactive) | > 100 µM (inactive) | > 100 µM (inactive) | > 100 µM (inactive) |
